In patent US10151529B2, “Dynamic suspension drying (DSD) to control Ostwald Ripening” (HOVIONE INTERNATIONAL LTD, priority 2013, dated 2018):

Columns and labels:
Format in all cases: physicochemical
[1] = Laboratory study of Ostwald Ripening: particle size growth of size-reduced suspensions stored at different temperatures, LSW model fit
Method: 4. In order to confirm that the observed PS instability was being caused by OR phenomenon, a laboratorial study was designed. In this study, two suspensions of MFM were size-reduced via HPH to a different PS (D50=2.0 μm and 3.0 μm) and, afterwards, stored at different temperatures (5° C. and 45° C.). In all cases, PS growth was monitored by considering […] sampling time points (24, 72, 144 and 168 h).
Before fitting the obtained data, a literature review was conducted; several models can be found for OR modeling, with most of them being modifications of the Lifshitz, Slyozov and Wagner (LSW) theory (Eq. 1), which is a kinetic model that translates an isothermal variation of the more general problem (M. Mrotzek, 2008): […]
Based on the above equation, two important observations (M. Mrotzek, 2008) (V. Sadtler, 2002) are expected when in the presence of OR: i) a cubic or quadratic growth (depending on the limiting step) and ii) a more pronounced increase of K for higher temperatures. As shown in FIG. 2 (left plot), both previous observations are valid for the current case-study, thus supporting the presence of OR; in this plot, r^3-r0^3 was represented as a function of time and the K value determined by performing a linear regression where Eq. 1 was assumed as the theoretical model; as shown in […] (right plot) a good correlation coefficient was obtained (R^2=0.94).

[2] = XRPD analysis of crystalline form after DSD
Description: 8. The crystalline form was kept unchanged, as confirmed by XRPD analysis. 9. Through this delicate balance, stabilization of the suspension is accomplished (FIG. 3) in a simpler, effective, reproducible and easily scalable way; additionally, no impact on the polymorphic form was noticeable by XPRD analysis.

[3] = Particle size (in-process control) after high pressure homogenization and during spray drying, with and without DSD
Method: 1. Mometasone furoate monohydrate (2330 g) was suspended in water (23000 g) and stirred for 5 hours in order to obtain a uniform suspension; afterwards, it was fed to a lab scale HPH apparatus operating at pressures ranging from 757.5 to 1363.5 bar in recirculation mode (returning the discharge of the HPH to the stirred vessel inlet), having this step ended with a Dv50˜2 μm after 63 hours of operation;
2. After the homogenization step described in point 1. above, particle size of the active pharmaceutical ingredient was within target and the suspension was fed to a lab scale spray dryer in order to isolate the active pharmaceutical ingredient in the form of a powder;
3. […] Due to this unstable behavior (the final material properties were trending out of targets) the batch had to be interrupted to accommodate an investigation.
6. In order to move forward with the manufacturing of the mentioned batch and following ones, the dynamic suspension drying (DSD) was applied targeting the stabilization of the suspension during drying for that purpose the suspension was recycled at a moderated pressure of 455 bar.

- Ostwald Ripening at 5° C. for target D50 range ([1]; D50 ~2 μm, 5° C., water as anti-solvent): still significant
- Ostwald Ripening rate constant K at 5° C. compared to 45° C. ([1]; suspensions size-reduced to D50 = 2.0 μm and 3.0 μm, stored at 5° C. and 45° C., up to 168 h): more than five times lower
- crystalline form after DSD [2]: unchanged
- Dv50 at end of HPH step ([3]; suspension in water, HPH at 757.5 to 1363.5 bar in recirculation mode, after 63 hours of operation): ~2 μm
- Dv50 of isolated product manufactured through DSD ([3]; suspension recycled to HPH at 455 bar during drying, on average, FIG. 4): ~2 μm
SMILES: C[C@@H]1C[C@H]2[C@@H]3CCC4=CC(=O)C=C[C@]4(C)[C@@]3(Cl)[C@@H](O)C[C@]2(C)[C@@]1(OC(=O)c1ccco1)C(=O)CCl [Mometasone furoate monohydrate]
- particle size trend during isolating step (spray drying) without recirculation ([3]; suspension kept under stirring in feed vessel, no DSD, FIG. 2): increasing values of particle size were observed over time
